How the values were obtained:
ddY-mice [1] = test: Test 3: Lipid Lowering Effect on ddY-Mice (olive oil load, plasma TG elevation); assay type: in vivo; details: male ddY-mice fasted about 16 hours, oral, 0.32 mg/kg in olive oil (10 ml/kg), 2 hours; (TG increase in drug treated group/TG increase in control group)×100
Experimental: Male ddY-mice were housed in temperature- and humidity-controlled rooms and fed with laboratory chow. The animals were randomized according to their body weight and food was deprived about 16 hours before experiment. Baseline blood sample was collected from the retro orbital venous plexus then the animals were orally dosed with drugs in olive oil (10 ml/kg). For control group, 10 ml/kg of olive oil was loaded orally. Blood samples were drawn at 2 hours after drug administration for the measurement of triglyceride (TG) elevation. Plasma TG was determined by conventional enzyme method (The triglyceride E-test Wako).
Lipid lowering effects were shown in percent of the TG increase in drug treated group, relative to the TG increase in control group. Lipid lowering effect (%)=(TG increase in drug treated group/TG increase in control group)×100

Apo B secretion = test: Test 1: Measurement of Inhibition of Apo B Secretion (HepG2 cells, ELISA of medium); assay type: cell-based; details: Homo sapiens, 10^−8 M test compound, 15-hour incubation, 0.1% DMSO treated cells as controls
Experimental: HepG2 cells were seeded in Eagles medium containing 10% fetal calf serum (FCS) at a density of 30000 cells/well in 96-well plates and allowed to grow for 3 days before treatment. At this time, the medium was replaced with fresh medium containing 0.1% dimethyl sulfoxide (DMSO) and the indicated concentrations of a test compound. After 15-hour incubation, the amount of Apo B and Apo AI accumulated in the media was determined by ELISA.
The assay was carried out at ambient temperature. A flat bottomed micro ELISA plate (manufactured by Nunc) was coated with an anti Apo B monoclonal antibody solution ([…] in 0.05% carbonate buffer, pH 9.6).by adding the antibody solution at a volume of 100 μl per well. After 1-hour incubation on a plate mixer, the unbound materials were removed by washing the well 3 times with a washing buffer (phosphate buffered saline, pH 7.2 containing 0.1% bovine serum albumin and 0.05% Tween-20). Then 20 μl of […] and 100 μl of a solution of peroxidase coupled anti Apo B antibody were added. After 1-hour incubation on a plate mixer, washing was performed 3 times to remove the unbound materials. A freshly prepared substrate solution (2.5 mg/ml ortho-phenylene diamine and 0.018% H2O2 in 0.11 M Na2HPO4-0.044 M sodium citrate buffer, pH 5.4) at a volume of 200 μl was then added to each well. After 20-minute incubation, the enzyme reaction was terminated by adding 50 μl of 0.5 M sulfuric acid. Absorbance of each well was determined at 490 nm using a microplate reader. Apo B concentration was calculated from a standard curve generated from purified Apo B standard that was run in parallel in the same plate. Inhibition of Apo B secretion by the test compound is calculated taking 0.1% DMSO treated cells as controls.
Measurement of Apo AI was performed similar to that of Apo B, except for diluting the sample 11-fold with a dilution buffer (phosphate buffered saline, pH 7.2 containing 0.5% bovine serum albumin and 0.05% Tween-20).
Apo B secretion inhibitors are identified as compounds that decrease Apo B secretion without affecting the secretion of Apo AI.

ddY-mice [2] = test: Test 2: Lipids Lowering Effect on ddY-Mice (plasma cholesterol and triglyceride); assay type: in vivo; details: male ddY-mice, oral, 3.2 mg/kg in 0.5% methylcellulose, relative to baseline; for Cholesterol (% of 0 hr) 2 hr: plasma total-cholesterol 2 hours after administration; for Triglyceride (% of 0 hr) 2 hr: plasma triglyceride 2 hours after administration
Experimental: Male ddY-mice were housed in temperature- and humidity-controlled rooms and fed with laboratory chow. The animals were randomized according to their body weight and deprived of food just before the experiment. A blood sample (baseline blood sample) was collected from the retro orbital venous plexus before administration of the test drug, and then the animals were orally dosed with the test drug in a vehicle (aqueous solution of 0.5% methylcellulose). Blood samples were drawn at 2 hours after drug administration for the measurement of cholesterol and triglyceride.
Plasma total-cholesterol and plasma triglyceride were determined by conventional enzyme methods using commercially available kits. The cholesterol CII-Test Wako (Wako Pure Chemical Industries, Ltd.) was used for the measurement of cholesterol, and the triglyceride E-test Wako (Wako Pure Chemical Industries, Ltd.) was used for the measurement of triglyceride.
Lipids lowering effects were shown in percent relative to the baseline level (level at 0 hr).

Row | Compound | Lipid lowering effect (%) (ddY-mice [1]) | inhibition at 0.01 µM (Apo B secretion) [%] | Cholesterol (% of 0 hr) 2 hr (ddY-mice [2]) | Triglyceride (% of 0 hr) 2 hr (ddY-mice [2])
1 | N#Cc1cccc(CN2CCN(c3ccc(NC(=O)C4=C(c5ccc(C(F)(F)F)cc5)CCCC4)cn3)CC2)c1 [Example 212, N-{6-[4-(3-cyanobenzyl)-1-piperazinyl]-3-pyridinyl}-2-[4-(trifluoromethyl)phenyl]-1-cyclohexene-1-carboxamide] | 55 | 84 |  | 
2 | Cc1ccc(-c2ccc(Cl)cc2)c(C(=O)Nc2ccc(NCCc3ccccn3)cc2)c1 [Example 31, 4′-chloro-4-methyl-N-(4-{[2-(2-pyridinyl)ethyl]amino}phenyl)-1,1′-biphenyl-2-carboxamide] |  | 96 | 86 % of 0 hr | 36 % of 0 hr
3 | Cc1ccc(C(=O)Nc2ccc(NCCc3ccccn3)cc2)c(-c2ccc(F)cc2)c1 [Example 46, 4′-fluoro-5-methyl-N-(4-{[2-(2-pyridinyl)ethyl]amino}phenyl)-1,1′-biphenyl-2-carboxamide] |  | 94 | 79 % of 0 hr | 19 % of 0 hr
4 | Cc1ccc(-c2ccc(F)cc2)c(C(=O)Nc2ccc(NCCc3cccc(N)n3)cc2)c1 [Example 56, N-(4-{[2-(6-amino-2-pyridinyl)ethyl]amino}phenyl)-4′-fluoro-4-methyl-1,1′-biphenyl-2-carboxamide] |  | 93 | 81 % of 0 hr | 31 % of 0 hr
5 | Cc1ccc(C(=O)Nc2ccc(NCCc3ccccn3)cc2)c(-c2ccc(C(F)(F)F)cc2)c1 [Example 44, 5-methyl-N-(4-{[2-(2-pyridinyl)ethyl]amino}phenyl)-4′-(trifluoromethyl)-1,1′-biphenyl-2-carboxamide] |  | 83 | 80 % of 0 hr | 25 % of 0 hr
6 | O=C(Nc1ccc(NCCc2ccccn2)cc1)C1=C(c2ccc(C(F)(F)F)cc2)CCCCC1 [Example 232, N-(4-{[2-(2-pyridinyl)ethyl]amino}phenyl)-2-[4-(trifluoromethyl)phenyl]-1-cycloheptene-1-carboxamide] | 29 | 93 |  | 
7 | Cc1ccc(-c2ccc(Cl)cc2)c(C(=O)Nc2ccc(NCCc3cccc(N)n3)cc2)c1 [Example 55, N-(4-{[2-(6-amino-2-pyridinyl)ethyl]amino}phenyl)-4′-chloro-4-methyl-1,1′-biphenyl-2-carboxamide] |  | 86 | 75 % of 0 hr | 16 % of 0 hr
8 | Cc1ccc(-c2ccc(C)cc2C(=O)Nc2ccc(NCCc3cccc(N)n3)cc2)cc1 [Example 53, N-(4-{[2-(6-amino-2-pyridinyl)ethyl]amino}phenyl)-4,4′-dimethyl-1,1′-biphenyl-2-carboxamide] |  | 84 | 71 % of 0 hr | 17 % of 0 hr
